Earlier results, collected in US6488962B1, “Tablet shapes to enhance gastric retention of swellable controlled-release oral dosage forms” (DepoMed, Inc., priority 2000, dated 2002).

Conditions: oral doses administered with or following a meal

Compound: Cc1c(O)cccc1C(=O)N[C@@H](CSc1ccccc1)[C@H](O)CN1C[C@H]2CCCC[C@H]2C[C@H]1C(=O)NC(C)(C)C [nelfinavir]
- area under the plasma concentration-time curve, with or following a meal versus without: two to three times greater
- peak plasma concentration, with or following a meal versus without: two to three times greater
